This experiment relates to MV-4-11 cells. Kind of experiment: Gene expression microarray analysis (Affymetrix PrimeView) and GSEA. It counts as cell-based, human. The arrangement: RFU PODN (11730768_x_at) / Fold change /veh PODN (11730768_x_at) / RFU LINC00158 (11744669_a_at) / Fold change /veh LINC00158 (11744669_a_at) / RFU DUSP10 (11751237_a_at) / Fold change /veh DUSP10 (11751237_a_at) / RFU ID3 (11757404_x_at) / Fold change /veh ID3 (11757404_x_at) / RFU PLEKHG5 (11737974_s_at) / Fold change /veh PLEKHG5 (11737974_s_at) / RFU LRRC4B (11730491_at) / Fold change /veh LRRC4B (11730491_at) / RFU GIMAP4 (11747438_a_at) / Fold change /veh GIMAP4 (11747438_a_at) / RFU KRT8 (11758183_x_at) / Fold change /veh KRT8 (11758183_x_at) / RFU CNN1 (11734310_a_at) / Fold change /veh CNN1 (11734310_a_at) / RFU VPS37D (11726825_at) / Fold change /veh VPS37D (11726825_at) / RFU C10orf10 (11716522_x_at) / Fold change /veh C10orf10 (11716522_x_at) / RFU KIR2DL2 /// KIR2DL4 /// KIR2DL5A /// KIR2DL5B /// KIR2DS1 /// KIR2DS2 /// KIR2DS3 /// KIR2DS4 /// KIR3DL3 /// KIR3DL3 /// KIR3DS1 (11738374_at) / Fold change /veh KIR2DL2 /// KIR2DL4 /// KIR2DL5A /// KIR2DL5B /// KIR2DS1 /// KIR2DS2 /// KIR2DS3 /// KIR2DS4 /// KIR3DL3 /// KIR3DL3 /// KIR3DS1 (11738374_at) / RFU C1QL1 (11718748_at) / Fold change /veh C1QL1 (11718748_at) / RFU TMPRSS4 (11747572_a_at) / Fold change /veh TMPRSS4 (11747572_a_at) / RFU HAMP (11756126_x_at) / Fold change /veh HAMP (11756126_x_at) / RFU RNFT2 (11725882_a_at) / Fold change /veh RNFT2 (11725882_a_at) / RFU NR4A2 (11747474_a_at) / Fold change /veh NR4A2 (11747474_a_at) / RFU ABCC12 (11746883_a_at) / Fold change /veh ABCC12 (11746883_a_at) / RFU TMEM136 (11760407_x_at) / Fold change /veh TMEM136 (11760407_x_at) / RFU CLDN22 /// WWC2 (11732394_at) / Fold change /veh CLDN22 /// WWC2 (11732394_at) / RFU HLA-DPB1 (11760878_x_at) / Fold change /veh HLA-DPB1 (11760878_x_at) / RFU SPINT1 (11716480_a_at) / Fold change /veh SPINT1 (11716480_a_at) / RFU GAP43 (11754022_s_at) / Fold change /veh GAP43 (11754022_s_at) / RFU A4GNT (11735810_at) / Fold change /veh A4GNT (11735810_at) / RFU PRB3 (11715151_x_at) / Fold change /veh PRB3 (11715151_x_at) / RFU TUBB4B (11761932_at) / Fold change /veh TUBB4B (11761932_at) / RFU CAPN14 (11732068_a_at) / Fold change /veh CAPN14 (11732068_a_at) / RFU TMCC2 (11721928_a_at) / Fold change /veh TMCC2 (11721928_a_at) / RFU IRGQ (11745062_a_at) / Fold change /veh IRGQ (11745062_a_at) / RFU FAM174B (11720279_a_at) / Fold change /veh FAM174B (11720279_a_at) / RFU TMPRSS4 (11748680_a_at) / Fold change /veh TMPRSS4 (11748680_a_at) / RFU FAM212B (11763350_a_at) / Fold change /veh FAM212B (11763350_a_at) / RFU PLEKHG5 (11743358_a_at) / Fold change /veh PLEKHG5 (11743358_a_at) / RFU ZSCAN30 (11745921_a_at) / Fold change /veh ZSCAN30 (11745921_a_at) / RFU CMKLR1 (11741424_a_at) / Fold change /veh CMKLR1 (11741424_a_at) / RFU LOC101060620 /// MAPK8IP1 (11723275_at) / Fold change /veh LOC101060620 /// MAPK8IP1 (11723275_at) / RFU SPTSSB (11747773_x_at) / Fold change /veh SPTSSB (11747773_x_at) / RFU PRSS12 (11739890_at) / Fold change /veh PRSS12 (11739890_at) / RFU BIN1 (11741810_x_at) / Fold change /veh BIN1 (11741810_x_at) / RFU WNT11 (11732464_a_at) / Fold change /veh WNT11 (11732464_a_at) / RFU C10orf10 (11716521_a_at) / Fold change /veh C10orf10 (11716521_a_at) / RFU C5orf56 (11738089_at) / Fold change /veh C5orf56 (11738089_at) / RFU CYB561 (11721691_x_at) / Fold change /veh CYB561 (11721691_x_at) / RFU ANKRD19P (11752326_a_at) / Fold change /veh ANKRD19P (11752326_a_at) / RFU OR2T12 /// OR2T33 /// OR2T8 (11738714_s_at) / Fold change /veh OR2T12 /// OR2T33 /// OR2T8 (11738714_s_at) / RFU VCAN (11748164_a_at) / Fold change /veh VCAN (11748164_a_at) / RFU JSRP1 (11732532_at) / Fold change /veh JSRP1 (11732532_at) / RFU KRTAP10-11 (11738290_x_at) / Fold change /veh KRTAP10-11 (11738290_x_at) / RFU MYO3A (11730013_a_at) / Fold change /veh MYO3A (11730013_a_at) / RFU EBF3 (11725865_a_at) / Fold change /veh EBF3 (11725865_a_at) / RFU CAMK2N1 (11719241_x_at) / Fold change /veh CAMK2N1 (11719241_x_at) / RFU C5orf56 (11738088_a_at) / Fold change /veh C5orf56 (11738088_a_at) / RFU OLFML3 (11715873_a_at) / Fold change /veh OLFML3 (11715873_a_at) / RFU LOC100653217 /// NTM (11731650_a_at) / Fold change /veh LOC100653217 /// NTM (11731650_a_at) / RFU MAPK11 (11762145_a_at) / Fold change /veh MAPK11 (11762145_a_at) / RFU FIZ1 (11724087_x_at) / Fold change /veh FIZ1 (11724087_x_at) / RFU OASL (11726364_x_at) / Fold change /veh OASL (11726364_x_at) / RFU SOX15 (11748057_x_at) / Fold change /veh SOX15 (11748057_x_at) / RFU CD79A (11719716_a_at) / Fold change /veh CD79A (11719716_a_at) / RFU HIST1H1D (11736915_at) / Fold change /veh HIST1H1D (11736915_at) / RFU CASKIN2 (11723855_a_at) / Fold change /veh CASKIN2 (11723855_a_at) / RFU LOC730098 (11760151_x_at) / Fold change /veh LOC730098 (11760151_x_at) / RFU OR4N2 (11742367_at) / Fold change /veh OR4N2 (11742367_at) / RFU PRRT2 (11749266_a_at) / Fold change /veh PRRT2 (11749266_a_at) / RFU SNX32 (11753110_a_at) / Fold change /veh SNX32 (11753110_a_at) / RFU CDHR5 (11726645_a_at) / Fold change /veh CDHR5 (11726645_a_at) / RFU RCAN1 (11760418_a_at) / Fold change /veh RCAN1 (11760418_a_at) / RFU FAM167A (11723789_a_at) / Fold change /veh FAM167A (11723789_a_at) / RFU FAM26E (11764081_at) / Fold change /veh FAM26E (11764081_at) / RFU ISYNA1 (11749810_s_at) / Fold change /veh ISYNA1 (11749810_s_at) / RFU ACY1 (11761880_at) / Fold change /veh ACY1 (11761880_at) / RFU 11764098_at / Fold change /veh 11764098_at / RFU SAMD14 (11745864_x_at) / Fold change /veh SAMD14 (11745864_x_at) / RFU NPB (11741838_a_at) / Fold change /veh NPB (11741838_a_at) / RFU TMPRSS6 (11731388_a_at) / Fold change /veh TMPRSS6 (11731388_a_at) / RFU KRTAP10-2 (11738614_at) / Fold change /veh KRTAP10-2 (11738614_at) / RFU ARHGAP8 /// PRR5-ARHGAP8 (11727945_x_at) / Fold change /veh ARHGAP8 /// PRR5-ARHGAP8 (11727945_x_at) / RFU KRTAP5-7 /// NADSYN1 (11734609_at) / Fold change /veh KRTAP5-7 /// NADSYN1 (11734609_at) / RFU RASL12 (11751679_a_at) / Fold change /veh RASL12 (11751679_a_at) / RFU CDKN2B (11736163_a_at) / Fold change /veh CDKN2B (11736163_a_at) / RFU PRF1 (11729649_at) / Fold change /veh PRF1 (11729649_at) / RFU, ZNF638 /// ZNF638-IT1 / Fold change vs veh, ZNF638 /// ZNF638-IT1 / RFU, PANK3 / Fold change vs veh, PANK3 / RFU, SH3YL1 / Fold change vs veh, SH3YL1 / RFU, ZEB2 / Fold change vs veh, ZEB2 / RFU, NRIP1 / Fold change vs veh, NRIP1 / RFU, PTTG1IP / Fold change vs veh, PTTG1IP / RFU, CAPN2 / Fold change vs veh, CAPN2 / RFU, MED14 / Fold change vs veh, MED14 / RFU, SNORA58 / Fold change vs veh, SNORA58 / RFU, C1orf63 / Fold change vs veh, C1orf63 / RFU, LRRFIP1 / Fold change vs veh, LRRFIP1 / RFU, NDUFAF7 / Fold change vs veh, NDUFAF7 / RFU, SLC12A2 / Fold change vs veh, SLC12A2 / RFU, IBTK / Fold change vs veh, IBTK / RFU, ESF1 / Fold change vs veh, ESF1 / Fold change vs veh, TMEM50B / RFU, TAOK1 / Fold change vs veh, TAOK1 / RFU, ACBD3 / Fold change vs veh, ACBD3 / RFU, TMA16 / Fold change vs veh, TMA16 / RFU, RWDD3 / Fold change vs veh, RWDD3 / RFU, BCAT1 / Fold change vs veh, BCAT1 / RFU, EDEM3 / Fold change vs veh, EDEM3 / RFU, TMEM33 / Fold change vs veh, TMEM33 / RFU, WDR75 / Fold change vs veh, WDR75 / RFU, AHCTF1 / Fold change vs veh, AHCTF1 / RFU, TFRC / Fold change vs veh, TFRC / RFU, ZDHHC17 / Fold change vs veh, ZDHHC17 / RFU, NOM1 / Fold change vs veh, NOM1 / RFU, ARL8B / Fold change vs veh, ARL8B / RFU, ZBTB11 / Fold change vs veh, ZBTB11 / RFU, TAMM41 / Fold change vs veh, TAMM41 / RFU, KIAA1704 /// LOC100996395 / Fold change vs veh, KIAA1704 /// LOC100996395 / RFU, ING1 / Fold change vs veh, ING1 / RFU, TRMT61B / Fold change vs veh, TRMT61B / RFU, FUBP3 / Fold change vs veh, FUBP3 / RFU, TP53 / Fold change vs veh, TP53 / RFU, TNKS2 / Fold change vs veh, TNKS2 / RFU, ZFP14 / Fold change vs veh, ZFP14 / RFU, ACTR2 / Fold change vs veh, ACTR2 / RFU, PPP3R1 / Fold change vs veh, PPP3R1 / RFU, PIK3R1 / Fold change vs veh, PIK3R1 / RFU, HNRNPA1 / Fold change vs veh, HNRNPA1 / RFU, RNF170 / Fold change vs veh, RNF170 / RFU, ZNF28 / Fold change vs veh, ZNF28 / RFU, RNGTT / Fold change vs veh, RNGTT / RFU, OGT / Fold change vs veh, OGT / RFU, BRD1 / Fold change vs veh, BRD1 / RFU, MARS / Fold change vs veh, MARS / RFU, ZNF655 / Fold change vs veh, ZNF655 / RFU, FAHD1 / Fold change vs veh, FAHD1 / RFU, BDP1 / Fold change vs veh, BDP1 / RFU, LRRCC1 / Fold change vs veh, LRRCC1 / RFU, ARID1A / Fold change vs veh, ARID1A / RFU, ZNF146 / Fold change vs veh, ZNF146 / RFU, ZNF330 / Fold change vs veh, ZNF330 / RFU, GPN3 / Fold change vs veh, GPN3 / RFU, C9orf123 / Fold change vs veh, C9orf123 / RFU, N4BP2L2 / Fold change vs veh, N4BP2L2 / RFU, ARFIP1 / Fold change vs veh, ARFIP1 / RFU, FAM179B / Fold change vs veh, FAM179B / RFU, BCL10 / Fold change vs veh, BCL10 / RFU, UHRF1BP1L / Fold change vs veh, UHRF1BP1L / RFU, BET1 / Fold change vs veh, BET1 / RFU, CNOT2 / Fold change vs veh, CNOT2 / RFU, ZNF268 / Fold change vs veh, ZNF268 / Fold change vs veh, ZNF507 / RFU, DGCR2 / Fold change vs veh, DGCR2 / RFU, WDSUB1 / Fold change vs veh, WDSUB1 / Fold change vs veh, HSP90B1 /// MIR3652 / RFU, ADSS / Fold change vs veh, ADSS / RFU, GK / Fold change vs veh, GK / RFU, ZNF148 / Fold change vs veh, ZNF148 / RFU, TAF9 / Fold change vs veh, TAF9 / RFU, SLC1A5 / Fold change vs veh, SLC1A5 / RFU, SLMO2 / Fold change vs veh, SLMO2 / RFU, ABCC4 / Fold change vs veh, ABCC4 / RFU, LOC101060439 /// RAP1B / Fold change vs veh, LOC101060439 /// RAP1B / RFU, RFX7 / Fold change vs veh, RFX7 / RFU, GTPBP10 / Fold change vs veh, GTPBP10 / RFU, CNEP1R1 / Fold change vs veh, CNEP1R1 / RFU, BIVM-ERCC5 /// ERCC5 / Fold change vs veh, BIVM-ERCC5 /// ERCC5 / RFU, ILF3 / Fold change vs veh, ILF3 / RFU 11762660_at / Fold change /veh 11762660_at / RFU VCAN (11757783_s_at) / Fold change /veh VCAN (11757783_s_at) / RFU DDX43 (11728927_at) / Fold change /veh DDX43 (11728927_at) / RFU KRT8 (11758188_x_at) / Fold change /veh KRT8 (11758188_x_at) / RFU NKD1 (11759106_at) / Fold change /veh NKD1 (11759106_at) / RFU SRD5A1 (11742802_a_at) / Fold change /veh SRD5A1 (11742802_a_at) / RFU TPSAB1 /// TPSB2 (11721975_s_at) / Fold change /veh TPSAB1 /// TPSB2 (11721975_s_at) / RFU GSTM3 (11746129_a_at) / Fold change /veh GSTM3 (11746129_a_at) / RFU IL23R (11737362_x_at) / Fold change /veh IL23R (11737362_x_at) / RFU TMEM51 (11727254_a_at) / Fold change /veh TMEM51 (11727254_a_at) / RFU PIWIL2 (11732686_x_at) / Fold change /veh PIWIL2 (11732686_x_at) / RFU ORM1 (11744905_x_at) / Fold change /veh ORM1 (11744905_x_at) / RFU CCDC152 (11743942_at) / Fold change /veh CCDC152 (11743942_at) / RFU ECM1 (11717891_a_at) / Fold change /veh ECM1 (11717891_a_at) / RFU IL23R (11748794_a_at) / Fold change /veh IL23R (11748794_a_at) / RFU TNFAIP8L3 (11732012_x_at) / Fold change /veh TNFAIP8L3 (11732012_x_at) / RFU MBOAT4 (11741988_at) / Fold change /veh MBOAT4 (11741988_at) / RFU 11764193_at / Fold change /veh 11764193_at / RFU TMEM53 (11763286_at) / Fold change /veh TMEM53 (11763286_at) / RFU MAGEB2 (11727129_at) / Fold change /veh MAGEB2 (11727129_at) / RFU TMEM200A (11744735_a_at) / Fold change /veh TMEM200A (11744735_a_at) / RFU CCDC152 (11751479_a_at) / Fold change /veh CCDC152 (11751479_a_at) / RFU FAM211A (11726209_a_at) / Fold change /veh FAM211A (11726209_a_at) / RFU RGS16 (11746705_a_at) / Fold change /veh RGS16 (11746705_a_at) / RFU VCAN (11755009_s_at) / Fold change /veh VCAN (11755009_s_at) / RFU RHOB (11743442_s_at) / Fold change /veh RHOB (11743442_s_at) / RFU RGS16 (11720943_a_at) / Fold change /veh RGS16 (11720943_a_at) / RFU RGS16 (11720944_at) / Fold change /veh RGS16 (11720944_at) / RFU, VPS4B / Fold change vs veh, VPS4B / RFU, CREB1 / Fold change vs veh, CREB1 / RFU, DNAJC13 / Fold change vs veh, DNAJC13 / RFU, GNAQ / Fold change vs veh, GNAQ / RFU, CDK5R1 / Fold change vs veh, CDK5R1 / RFU, ZRANB3 / Fold change vs veh, ZRANB3 / RFU, CUL4A / Fold change vs veh, CUL4A / RFU, CCNY / Fold change vs veh, CCNY / RFU, UFL1 / Fold change vs veh, UFL1 / RFU, COG3 / Fold change vs veh, COG3 / RFU, DIAPH2 / Fold change vs veh, DIAPH2 / RFU, SKA2 / Fold change vs veh, SKA2 / RFU, AFF3 / Fold change vs veh, AFF3 / RFU, LMF1 / Fold change vs veh, LMF1 / RFU, IPO11 / Fold change vs veh, IPO11 / RFU, DFFB / Fold change vs veh, DFFB / RFU, FOXP1 / Fold change vs veh, FOXP1 / RFU, CARD8 / Fold change vs veh, CARD8 / RFU, STRN3 / Fold change vs veh, STRN3 / RFU, ADK / Fold change vs veh, ADK / RFU, RASSF2 / Fold change vs veh, RASSF2 / RFU, WIPF1 / Fold change vs veh, WIPF1 / RFU, LARP1B / Fold change vs veh, LARP1B / RFU, RASA1 / Fold change vs veh, RASA1 / RFU, RB1 / Fold change vs veh, RB1 / RFU, PPFIA1 / Fold change vs veh, PPFIA1 / RFU, MAT2A / Fold change vs veh, MAT2A / RFU, CCT5 / Fold change vs veh, CCT5 / RFU, WDR92 / Fold change vs veh, WDR92 / RFU, CUX1 / Fold change vs veh, CUX1 / RFU, TTC7A / Fold change vs veh, TTC7A / RFU, TMEM135 / Fold change vs veh, TMEM135 / RFU, DEPTOR / Fold change vs veh, DEPTOR / RFU, CPM / Fold change vs veh, CPM / RFU, DNAJB6 / Fold change vs veh, DNAJB6 / RFU, CACNA2D3 / Fold change vs veh, CACNA2D3 / RFU, DTX4 / Fold change vs veh, DTX4 / RFU, TFCP2 / Fold change vs veh, TFCP2 / RFU, GMCL1 /// GMCL1P1 / Fold change vs veh, GMCL1 /// GMCL1P1 / RFU, AEBP2 / Fold change vs veh, AEBP2 / RFU, SNHG1 /// SNORD22 /// SNORD25 /// SNORD26 /// SNORD27 /// SNORD28 /// SNORD29 /// SNORD31 / Fold change vs veh, SNHG1 /// SNORD22 /// SNORD25 /// SNORD26 /// SNORD27 /// SNORD28 /// SNORD29 /// SNORD31 / Fold change (Aza/veh), C12orf56 (ProbeSet 11735607_a_at) / Fold change (ACY-1035/veh), C12orf56 (ProbeSet 11735607_a_at) / Fold change (Aza/veh), FGFR1OP (ProbeSet 11751329_s_at) / Fold change (ACY-1035/veh), FGFR1OP (ProbeSet 11751329_s_at) / Fold change (Aza/veh), VPS36 (ProbeSet 11739960_a_at) / Fold change (ACY-1035/veh), VPS36 (ProbeSet 11739960_a_at) / RFU SYPL1 (11715823_x_at) / Fold change /veh SYPL1 (11715823_x_at) / RFU IGFBP7 (11715501_s_at) / Fold change /veh IGFBP7 (11715501_s_at) / RFU REEP3 (11722064_at) / Fold change /veh REEP3 (11722064_at) / RFU IGLL1 (11728026_x_at) / Fold change /veh IGLL1 (11728026_x_at): dose or concentration left out as unconfirmed. The settings on record: ProbeSet 11723930_at; LIST D.

SMILES strings stand for the structures.

Take `Nc1ccc(-c2cccs2)cc1NC(=O)c1ccc2c(c1)cc(C1CC1)n2CCN1CCOCC1` [ACY-1035]: the “RFU, CCT5” value worked out at 132.28 RFU.

The values above are taken from publication PMC5218480 (PLoS ONE, 2017).
